The results in this text go back to patent publication US4349545A, “Novel erythromycin a derivatives” (Roussel Uclaf, priority 1980, dated 1982).

In experiment [1] the test system is Streptococcus faecalis 99 F 74. The experiment in a line: serial dilution liquid medium MIC, Streptococcus faecalis 99 F 74. Format: cell-based. The following applies: Enterococcus faecalis, 99F74, 24 hours at 37° C., read-out: minimum inhibiting concentration (MIC). Put shortly:
(§1)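 Tubes of equal sterile nutritive medium received increasing amounts of test product, were seeded with the strain and incubated 24 hours at 37° C. Growth inhibition was judged by transillumination; MIC in μg/ml.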

Experiment [2] has as its system Staphylococcus aureus exp. n° 54 146. The experiment in a line: serial dilution liquid medium MIC, Staphylococcus aureus exp. n° 54 146. It counts as cell-based. The following applies: Staphylococcus aureus exp. 54 146; 24 hours at 37° C.; read-out: minimum inhibiting concentration (MIC). The gist of the method:
as §1

The test system of experiment [3] is Staphylococcus aureus UC 1128. The experiment in a line: serial dilution liquid medium MIC, Staphylococcus aureus UC 1128 pen-resistant. It counts as cell-based. The following applies: read-out: minimum inhibiting concentration (MIC). Put shortly:
as §1

For experiment [4], the system named is Bacillus subtilis ATCC 6 633. The experiment in a line: serial dilution liquid medium MIC, Bacillus subtilis ATCC 6 633. Format: cell-based. The following applies: ATCC6, 24 hours at 37° C., read-out: minimum inhibiting concentration (MIC). As for the experimental part:
(§2) The method was a serial dilution of liquid medium test wherein a series of tubes were prepared containing the same amount of sterile nutritive medium and increasing amounts of the test product was distributed in each tube. The tubes were then seeded with a bacterial strain and incubated for 24 hours in an oven at 37° C. The degree of inhibition was determined by transillumination to determine the minimum inhibiting concentration (MIC) express in μg/ml and the results are reported in the following Tables.

Experiment [5] relates to Streptococcus faecalis 5432. The experiment in a line: serial dilution liquid medium MIC, Streptococcus faecalis 5432. It counts as cell-based. Conditions: Enterococcus faecalis, 24 hours at 37° C., read-out: minimum inhibiting concentration (MIC). The gist of the method: as §1
The subject of experiment [6] is Streptococcus pyogenes A 561. The experiment in a line: serial dilution liquid medium MIC, Streptococcus pyogenes A 561. Format: cell-based. Conditions: A561, 24 hours at 37° C., read-out: minimum inhibiting concentration (MIC). The gist of the method:
as §1

Experiment [7] has as its system Staphylococcus aureus ATCC 6538. The experiment in a line: serial dilution liquid medium MIC, Staphylococcus aureus ATCC 6538 Pen-Sensibles. Format: cell-based. The following applies: read-out: minimum inhibiting concentration (MIC). Here is the method:
as §2

Experiment [8] concerns Staphylococcus aureus No. 54,146. The experiment in a line: In vivo activity in mice experimentally infected with Staphylococcus aureus No. 54,146. Conditions: groups of 10 mice. Here is the method:
The test was effected with the compounds of the invention and erythromycin as a reference on groups of 10 mice weighing about 21 g experimentally infected with Staphylococcus aureus No. 54,146 by intraperitoneal administration of 0.5 ml of a 22 hour culture of the said organism in bouillon with a pH of 7 diluted to 1/6 with physiological water. The test compounds were orally administrated to the mice 1,5 and 24 hours after the infection and the mortality on the 8th day was determined.

In experiment [9] the test system is Streptococcus pyrogenes A561. The experiment in a line: In vivo activity in mice experimentally infected with Streptococcus pyrogenes A561. The following applies: groups of 10 male mice. As for the experimental part:
In a second test, groups of 10 male mice weighing about 21 g were experimentally infected by an intraperitoneal injection of 0.5 ml of a 22 hour culture of Streptococcus pyrogenes A561 in Todd Hewitt bouillon with a pH of 7 diluted to 1/1000 with physiological water. The compounds of Examples 1 or 5 were administered orally 1,5 and 24 hours after the infection and the number of mice living on the fifth day was determined.

The test system of experiment [10] is Staphylococcus aureus 1061. The experiment in a line: serial dilution liquid medium MIC, Staphylococcus aureus 1061 pen-sensibles. Format: cell-based. Conditions: 24 hours at 37° C., read-out: minimum inhibiting concentration (MIC). The gist of the method:
as §1

The test system of experiment [11] is Streptococcus faecalis 5435. The experiment in a line: serial dilution liquid medium MIC, Streptococcus faecalis 5435. It counts as cell-based. The following applies: Enterococcus faecalis, 24 hours at 37° C., read-out: minimum inhibiting concentration (MIC). The gist of the method:
as §1

The mark [12] stands for this setting: UC1128, Staphylococcus aureus UC 1128 pen-resistant, 24 hours at 37° C.
Setting [13] is: Staphylococcus aureus, ATCC6538, 24 h.
[14] abbreviates: dose 0,5mg oral, 1,5 and 24 hours after infection.
The mark [15] stands for this setting: dose 0,25mg oral, 1,5 and 24 hours after infection.
The mark [16] stands for this setting: dose 0,75mg oral, 1,5 and 24 hours after infection.
[17] abbreviates: ATCC6538, Staphylococcus aureus ATCC 6538 Pen-Sensibles, 24 hours at 37° C.
Setting [18] is: dose 1mg oral, 1,5 and 24 hours after infection.

≈ marks a conversion by molar mass, not a printed value. Read-outs that look alike come from different tables or passages of the source. Where only a bound is given, the exact number is not on record here.

Regarding `CC[C@H]1OC(=O)[C@H](C)[C@@H](O[C@H]2C[C@@](C)(OC)[C@@H](O)[C@H](C)O2)[C@H](C)[C@@H](O[C@@H]2O[C@H](C)C[C@H](N(C)C)[C@H]2O)[C@](C)(O)C[C@@H](C)C(=NOCOCc2ccccc2)[C@H](C)[C@@H](O)[C@]1(C)O` [Example 7, 9-[0-benzyloxymethoxy-oxime] of erythromycin], the MIC in experiment [1] was 0.1 µg/mL (≈ 0.115 µM); in experiment [2], 0.5 µg/mL (≈ 0.575 µM); in experiment [3] (setting [12]), 1 µg/mL (≈ 1.15 µM); in experiment [4], 0.1 µg/mL (≈ 0.115 µM); in [5] it was 0.1 µg/mL (≈ 0.115 µM); in experiment [6], 0.05 µg/mL (≈ 0.0575 µM). Besides, the MIC in experiment [7] (setting [13]) amounted to 0.2 µg/mL (≈ 0.23 µM).
For the compound `CC[C@H]1OC(=O)[C@H](C)[C@@H](O[C@H]2C[C@@](C)(OC)[C@@H](O)[C@H](C)O2)[C@H](C)[C@@H](O[C@@H]2O[C@H](C)C[C@H](N(C)C)[C@H]2O)[C@](C)(O)C[C@@H](C)C(=NOCCN(C)C)[C@H](C)[C@@H](O)[C@]1(C)O` [Example 5, 9-[0-(2-dimethylaminoethyl)-oxime] of erythromycin], the MIC in experiment [1] is 0.05 µg/mL (≈ 0.061 µM); in [2], 1 µg/mL (≈ 1.22 µM); in experiment [3] (setting [12]), 1 µg/mL (≈ 1.22 µM); in experiment [4], 0.5 µg/mL (≈ 0.61 µM); in experiment [5], 0.05 µg/mL (≈ 0.061 µM); in experiment [6], ≤ 0.02 µg/mL. The MIC in experiment [7] (setting [17]) stood at 1 µg/mL (≈ 1.22 µM). The figures for the “No. of mice living on the 8th day” value in experiment [8] (setting [14]), in [8] (setting [15]) and in experiment [8] (setting [16]) were 8 mice, 2 mice and 10 mice, respectively. The “No. of mice alive on 5th day” value in experiment [9] (dose 0.1 mg oral, 1,5 and 24 hours after infection) came to 10 mice.
For `CC[C@H]1OC(=O)[C@H](C)[C@@H](O[C@H]2C[C@@](C)(OC)[C@@H](O)[C@H](C)O2)[C@H](C)[C@@H](O[C@@H]2O[C@H](C)C[C@H](N(C)C)[C@H]2O)[C@](C)(O)C[C@@H](C)C(=NOCOCCOC)[C@H](C)[C@@H](O)[C@]1(C)O` [Example 1, 9-[0-(2-methoxyethoxy)-methyloxime] of erythromycin], the MIC stood at 0.2 µg/mL (≈ 0.239 µM) in [1]; 1 µg/mL (≈ 1.19 µM) in [2]; 2 µg/mL (≈ 2.39 µM) in experiment [3] (setting [12]); 0.2 µg/mL (≈ 0.239 µM) in experiment [4]; 0.2 µg/mL (≈ 0.239 µM) in [5]; 0.05 µg/mL (≈ 0.0597 µM) in experiment [6]. Further, the MIC in experiment [7] (setting [13]) came to 0.5 µg/mL (≈ 0.597 µM). For the same compound, the figures for the “No. of mice living on the 8th day” value in experiment [8] (setting [14]) and in experiment [8] (setting [15]) were 10 mice and 7 mice, respectively. Further, the “No. of mice alive on 5th day” value in experiment [9] (dose 0.5 mg oral, 1,5 and 24 hours after infection) is recorded as 2 mice; in [9] (dose 1 mg oral, 1,5 and 24 hours after infection), 10 mice.
Turning to `CCOCCOCON=C1[C@H](C)C[C@@](C)(O)[C@H](O[C@@H]2O[C@H](C)C[C@H](N(C)C)[C@H]2O)[C@@H](C)[C@H](O[C@H]2C[C@@](C)(OC)[C@@H](O)[C@H](C)O2)[C@@H](C)C(=O)O[C@H](CC)[C@@](C)(O)[C@H](O)[C@H]1C` [Example 4, 9-[0-(2-ethoxyethoxymethyl)-oxime] of erythromycin], the MIC came out at 0.2 µg/mL (≈ 0.235 µM) in experiment [1]; 2 µg/mL (≈ 2.35 µM) in [2]; 3 µg/mL (≈ 3.52 µM) in [3] (setting [12]); 0.5 µg/mL (≈ 0.587 µM) in experiment [4]; 0.5 µg/mL (≈ 0.587 µM) in [5]; 0.05 µg/mL (≈ 0.0587 µM) in experiment [6]. Also, the MIC in experiment [7] (setting [17]) was found to be 2 µg/mL (≈ 2.35 µM). In addition, the “No. of mice living on the 8th day” value amounted to 4 mice in experiment [8] (setting [14]), 0 mice in experiment [8] (setting [15]), 9 mice in experiment [8] (setting [16]) and 10 mice in experiment [8] (setting [18]).
Consider `CC[C@H]1OC(=O)[C@H](C)[C@@H](O[C@H]2C[C@@](C)(OC)[C@@H](O)[C@H](C)O2)[C@H](C)[C@@H](O[C@@H]2O[C@H](C)C[C@H](N(C)C)[C@H]2O)[C@](C)(O)C[C@@H](C)C(=NOCCOc2ccc(Cl)cc2)[C@H](C)[C@@H](O)[C@]1(C)O` [Example 2, 9-[0-(2-{4-chlorophenoxy}-ethyl)-oxime] of erythromycin], for which the MIC is 0.1 µg/mL (≈ 0.111 µM) in [1]; 0.5 µg/mL (≈ 0.553 µM) in experiment [2]; 1 µg/mL (≈ 1.11 µM) in [3] (Staphylococcus aureus, UC1128, 24 h); 0.2 µg/mL (≈ 0.221 µM) in experiment [4]; 0.1 µg/mL (≈ 0.111 µM) in [5]; ≤ 0.02 µg/mL in [6]. In addition, the MIC in [7] (setting [13]) turned out to be 0.1 µg/mL (≈ 0.111 µM).
With `CC[C@H]1OC(=O)[C@H](C)[C@@H](O[C@H]2C[C@@](C)(OC)[C@@H](O)[C@H](C)O2)[C@H](C)[C@@H](O[C@@H]2O[C@H](C)C[C@H](N(C)C)[C@H]2O)[C@](C)(O)C[C@@H](C)C(=NOCC(=O)C(C)(C)C)[C@H](C)[C@@H](O)[C@]1(C)O` [Example 15, 9-[0-(3,3-dimethyl-2-oxo-butyl)-oxime] of erythromycin], the MIC is 0.2 µg/mL (≈ 0.236 µM) in [1]; 0.6 µg/mL (≈ 0.708 µM) in experiment [2]; 1 µg/mL (≈ 1.18 µM) in experiment [3] (setting [12]); 0.1 µg/mL (≈ 0.118 µM) in experiment [5]; 0.6 µg/mL (≈ 0.708 µM) in experiment [10]; 0.1 µg/mL (≈ 0.118 µM) in experiment [6]. Besides, the MIC in [11] came to 0.6 µg/mL (≈ 0.708 µM). In addition, the “No. of mice living on the 8th day” value in [8] (setting [14]) stood at 9 mice; in [8] (setting [15]), 1 mice; in experiment [8] (setting [16]), 10 mice.
Consider `CCOCCON=C1[C@H](C)C[C@@](C)(O)[C@H](O[C@@H]2O[C@H](C)C[C@H](N(C)C)[C@H]2O)[C@@H](C)[C@H](O[C@H]2C[C@@](C)(OC)[C@@H](O)[C@H](C)O2)[C@@H](C)C(=O)O[C@H](CC)[C@@](C)(O)[C@H](O)[C@H]1C` [Example 3, 9-[0-(2-ethoxyethyl)-oxime] of erythromycin], for which the MIC is 0.2 µg/mL (≈ 0.244 µM) in [1]; 0.5 µg/mL (≈ 0.609 µM) in experiment [2]; 1 µg/mL (≈ 1.22 µM) in [3] (setting [12]); 0.2 µg/mL (≈ 0.244 µM) in experiment [4]; 0.2 µg/mL (≈ 0.244 µM) in experiment [5]; 0.1 µg/mL (≈ 0.122 µM) in experiment [6]. Besides, the MIC in [7] (setting [17]) is 0.5 µg/mL (≈ 0.609 µM). In addition, the “No. of mice living on the 8th day” value in [8] (setting [14]) stood at 7 mice; in experiment [8] (setting [16]), 9 mice; in experiment [8] (setting [18]) it was 9 mice.
